Results on six compounds are retold here after patent publication US12171835B2, “Furan-aspidospermine dimer or pharmaceutically acceptable salt thereof, and preparation method, use and pharmaceutical composition” (Kunming Inst. of Botany, Chinese Acad. of Sciences, priority 2021, dated 2024).

The subject of assay [1] is bone marrow-derived macrophages (BMMs). The assay can be described thus: Activated immune test: ARG1 activity / M2 polarization in IL-4-stimulated BMMs. The format is cell-based, mouse. As to conditions: for inhibition of the expression of arginase induced by IL-4 in macrophages: BMMs pretreated with drug (1 μM), IL-4 stimulation 12 h, absorbance at 540 nm, FIG. 1. The protocol: Activated immune test: bone marrow-derived macrophages (BMMs), as primary cells isolated from bone marrow and subjected to induced culture that can well reflect functions of the macrophages, are commonly used cells to study the functions of the macrophages. A mouse femur bone marrow was isolated and cultured in a medium containing an mCSF factor for 6-7 d to obtain mature BMMs; stimulation with IL-4 for 12 h can induce polarization of the BMMs to an immunosuppressive M2 type with high expression of ARG1; after the ARG1 protein was extracted, arginine hydrolysis was conducted in vitro, and color development was further conducted by reacting α-isonitrosopropiophenone with a hydrolyzate urea; an absorbance was measured at a wavelength of 540 nm as a marker of an ARG1 activity. A specific process was as follows: cells were pretreated with drugs (1 μM) (including the CPLD, CPLL, TBYA, MDK, HMD, compounds 1-3 and compounds 5-7); IL-4 stimulation was conducted for 12 h, followed by washing with PBS, and cells were lysed with a lysis buffer containing a protease inhibitor, and a total cell protein was obtained; after adding […] to 0.4 mM Mn^2, the total cell protein was heated at 55° C. for 10 min to fully activate an arginase ARG1. 0.5 mM arginine was added for incubation at 37° C. for 1 h to 2 h to fully hydrolyze the arginine. An acid solution containing sulfuric acid and phosphoric acid was added to stop the reaction, a 9% α-isonitrosopropiophenone ethanol solution was added, followed by heating at 95° C. for 15 min to 30 min to develop color.

For assay [2] the test system is unchanged. Described as above. The class given is cell-based, mouse. As to conditions: FIG. 1C, FIG. 2.
The test system of assay [3] is CD8+ T cells and other immune cells in the tumor. The assay can be described thus: FACS analysis / intracellular staining of immune cells in the tumors. The class given is in vivo, mouse. The text has this:
Validation of improving and enhancing CD8^+ T cell function: through FACS analysis, the test results of compound 1 are shown in FIG. 3. […] In addition, the compound 1 is able to down-regulate a proportion of CD206^+ macrophages (FIG. 4).
(§1) Further immunofluorescence staining experiments also find that the CPLD can increase the proportion of CD8 T cells and promote the expression of Granzyme B (L). Further, mice were continuously injected with anti-CD8 antibodies to delete CD8+ T cells in the mice, to construct a melanoma model, followed by investigation of an anti-tumor activity of the compounds.
A general note: Flow cytometry measures light scatter and fluorescence of single cells or particles in a stream.

A further assay has as its system CD8 T cells. The assay can be described thus: immunofluorescence staining of tumors. The format is in vivo, mouse. Conditions: FIG. 5L.
Excerpt: as §1

For the next assay, the system named is tumor. Nature of the assay: nude mouse tumor model (CPLD). The format is in vivo. As to conditions: FIG. 5M to N.
The next assay deals with melanoma. The assay can be described thus: CD8+ T cell-depleted melanoma model (anti-CD8 antibodies). The format is in vivo, mice. Conditions: FIG. 5M to N.
Excerpt: as §1

In the case of 19′-hydroxymelodinineK [HMD], the “inhibition of the expression of arginase induced by IL-4 in macrophages” value (“inhibition of the expression … in macrophages” below) in assay [1] was “significantly inhibit”. For the same compound, the “inhibition of M2 polarization of the macrophages, concentration dependence” value (shortened to “inhibition … concentration dependence”) in assay [2] is “inhibit M2 polarization of the macrophages in a concentration-dependent manner”.
Turning to `CC[C@@]12C=CCN3CC[C@]4(C(=C(C(=O)OC)C1)Nc1cc5c(cc14)[C@H]1[C@@H](O5)[C@H](O)[C@]4(CC)CC(C(=O)OC)=C5Nc6c(cc(O)c(OC)c6OC)[C@@]56CCN1[C@H]46)[C@H]32` [CPLD, conophyllidine], in assay [3] (FACS analysis), the “effect on CD4 T cells” value is given as “no significant effect”, the “effect on Treg cells (proportion)” value is “no effect” and the “proportion of CD8+ T cells in the tumor” value was “significantly increase”. Further, in assay [3] (intracellular staining), the “expression of Granzyme B in CD8+ T cells” value is recorded as “enhance”, the “expression of IFNγ in CD8+ T cells” value is given as “enhance”, the “expression of TNFα in CD8+ T cells” value is listed as “enhance” and the “function of the CD8+ T cells” value is reported as “promote”. Besides, in the assay on CD8 T cells, the “expression of Granzyme B” value is reported as “promote” and the “proportion of CD8 T cells” value is listed as “increase”. Besides, the anti-tumor effect result in the assay with tumor is given as “significantly reduced”. For the same compound, the “inhibition of the expression … in macrophages” value in assay [1] is “significantly inhibit”. Besides, the anti-tumor effect entry with melanoma was “significantly reduced”. For the same compound, the “inhibition … concentration dependence” value in assay [2] was “inhibit M2 polarization of the macrophages in a concentration-dependent manner”.
As for `CC[C@@]12CC(C(=O)OC)=C3Nc4cc5c(cc4[C@@]34CCN(C[C@H]3O[C@H]31)[C@@H]24)[C@@H]1[C@H](O5)[C@@H](O)[C@@]2(CC)CC(C(=O)OC)=C3Nc4c(cc(O)c(OC)c4OC)[C@@]34CCN1[C@@H]24` [CPLL, conophylline], in assay [1], the “inhibition of the expression … in macrophages” value is reported as “significantly inhibit”. Besides, in assay [2], the “inhibition … concentration dependence” value is listed as “inhibit M2 polarization of the macrophages in a concentration-dependent manner”.
With Ibogabisindole [reference compound], the “activity of inhibiting M2 polarization in macrophages” value in assay [1] (comparison substances lacking the furan-aspidospermine dimer skeleton) was “neither the furan-ringed aspidospermine, Corynantheine, nor the furan-ringed aspidospermine, Ibogabisindole, have the activity”.
On to melodinine K [MDK], for which, in assay [1], the “inhibition of the expression … in macrophages” value is given as “significantly inhibit”. Further, the “inhibition … concentration dependence” value in assay [2] was “inhibit M2 polarization of the macrophages in a concentration-dependent manner”.
In the case of taberyunine A [TBYA], in assay [1], the “inhibition of the expression … in macrophages” value is “significantly inhibit”. Moreover, the “inhibition … concentration dependence” value in assay [2] is on record as “inhibit M2 polarization of the macrophages in a concentration-dependent manner”.
